Measured values taken from patent publication US20140271727A1, “METHOD OF USING AN ANTIDEPRESSANT FOR INCREASING IMMUNITY OF A SUBJECT AND TREATING CANCER” (NATIONAL YANG-MING UNIVERSITY, priority 2013, published 2014).

Tests used:
TNF-α = TNF-α in tumor by ex vivo Western blotting; parameters: species or system mouse; settings: Always, Concurrent and After; day 42 post tumor inoculation; decreased to % of Never
Procedure: As to the quantification of TNF-α, the whole blood withdrawn from the pouch of each mouse once a week for up to 6 weeks was centrifuged at 600×g for 20 min, and serum was collected. The serum TNF-α level was evaluated with an ELISA kit (eBioscience, USA). The level of TNF-α in the tumor of mice on day 42 post tumor inoculation was determined using ex vivo Western Blotting assay. Briefly, 6 weeks after tumor inoculation, the mice were sacrificed and the tumors were quickly removed and minced, then added with lysis buffer containing 1% protease inhibitor cocktail (T-PER tissue protein extraction reagent, Thermo Scientific, USA). Equal amounts of proteins (40 μg) were subjected to SDS-PAGE and transferred to PVDF membranes (Millipore, Bedford, Mass.). Non-specific binding was blocked by incubation with 5% non-fat milk. Membrane was incubated with antibodies against TNF-α (Abbiotec, USA) and β-actin (Millipore, USA) overnight at 4° C. The goat-anti rabbit IgG (Millipore) and goat-anti mouse IgG conjugated with horseradish peroxidase (Millipore) were used as the secondary antibodies. The band signal from the antigen-antibody binding was illustrated with enhanced chemoluminescence system (ECL, Millipore). Image J software (National Institutes of Health, USA) was used for the quantitative analysis.

CD4+ and CD8+ T cells = assay: Immunohistostaining of infiltrating CD4+ and CD8+ T cells in tumor tissues; assay type: in vivo, mouse; settings: concurrent and always vs never; day 42 post tumor inoculation; p<0.01 and p<0.001
Procedure: Immunohistochemistry (IHC) of CD4 and CD8 was also performed on day 42 post the tumor inoculation. Tumors were then removed, paraffin embedded, and 5-mm sectioning was performed. The sections were immunohistostained with antibodies against CD4 (BioLegend, USA) and CD8 (BioLegend, USA), respectively. The procedures of immunohistostaining were followed the protocols provided with the IHC kit (Millipore, USA). All images were digitally captured on a Scanscope CS system (Aperio, USA).

[1] = mouse, in vivo
Procedure: Second, all animal study protocols were approved by the Institutional Animal Care and Use Committee (IACAU) of National Yang Ming University. Mirtazapine (0.25 mg) was dissolved in 0.05 ml of 0.9% NaCl plus 0.5% absolute ethanol for each mouse (i.e. 10 mg/kg.) Male BALB/c mice (initial weights 25±2 g, and purchased from the National Laboratory Animal Center, Taipei, Taiwan) were housed in the cages, five mice per cage, under a 12:12 h reverse light/dark cycle with lights off at 6 pm Animals were handled and weighed daily for a week to reduce any non-specific stress responses. […] “Wild-type” means the mice are monitored without tumor inoculation and mirtazapine treatment, drug means the mice are monitored with continuous mirtazapine treatment but without tumor inoculation, never means the mice are monitored with tumor inoculation and daily 0.05 ml of 0.9% NaCl plus 0.5% absolute ethanol treatment but without mirtazapine treatment, always means the mice are monitored with mirtazapine treatment initiated 2 weeks before the tumor inoculation, and concurrent means the mice are monitored with tumor inoculation and mirtazapine treatment on the same day, and after means the mice are monitored with mirtazapine treatment initiated 2 weeks post the tumor inoculation. […]

CT26/luc cells = assay: MTT cell viability assay; assay type: cell-based, mouse; settings: 0-80 μM for 24, 48 and 72 hrs
Procedure: The details in preparing the materials and processing relative analyses will be illustrated as follows. First, CT-26 murine colon carcinoma cells (obtained from Taiwan Liposome Company, Taipei, Taiwan) were transfected with the luciferase gene (hereafter called “CT26/luc”). The CT26/luc tumor cells were cultured in RPMI 1640 medium (Invitrogen) supplemented with 10% fetal bovine serum (Hyclone), 100 units/ml of penicillin, and […] streptomycin (Gibco-BRL) at 37° C. in a 5% CO2 atmosphere.
Before starting the following investigation. The cell viability is analyzed. 3-(4,5-Dimethylthiazol-2-yl)-2,5-diphenyltetrazolium bromide (MTT, Sigma, USA) was dissolved in phosphate-buffered saline (145 mM NaCl, 1.4 mM KH2PO4, 4.3 mM Na2HPO4, and 2.7 mM KCl, pH 7.2). The CT26/luc cells were seeded in 96-well plates overnight, and then treated with various concentrations, such as 0, 5, 10, 20, 40, and 80 μM, of mirtazapine for 24, 48, and 72 hrs. And then, cell viability was determined with MTT assay. […] After 4 hours incubation at 37° C., 100 μl DMSO was added to dissolve the MTT formazan, and the absorbance was determined with an ELISA reader (Power Wave X340, Bio-Tek Instrument Inc., USA) using a wavelength of 570 nm for the excitation. […] The cell cycle analysis was assayed using a FACScan (BD Sciences) and analyzed by CellQuest software (BD Sciences).

## CN1CCN2c3ncccc3Cc3ccccc3C2C1 (stereo not shown) [mirtazapine]
TNF-α
  TNF-α level in tumors relative to Never: 40%
CD4+ and CD8+ T cells
  infiltrating CD4+ and CD8+ cells/0.1 mm^2 tumor tissues: significantly increased numbers
[1]
  body weight change (general toxicity): no significant body weight change
CT26/luc cells
  toxicity to CT26 colon cells: nontoxic
